We go through 16 molecules from patent US20120034250A1, “CONDENSED PYRROLOPYRIDINE DERIVATIVE” (Astellas Pharma Inc., priority 2009, published 2012).

A word on the IC50: it is the midpoint of a concentration-inhibition curve. Higher therefore signals lower potency. The term melting point denotes the temperature of the solid-liquid transition.

One data set deals with T1, human JAK1 kinase domain (Homo sapiens, UniProt P23458).
T1 construct: attached to the N-terminal of the 850 to 1154 (C-terminal) fragment of the human JAK1 protein; GST (N); purchased Carna Biosciences, Inc. (Kobe, Japan); host or cells: baculovirus expression system
The data set can be described thus: JAK inhibition test: measurement of JAK1 activity. It counts as biochemical. The note with it: 500 μM ATP, absorbance at 450 nm. From the text: (1) Preparation of Human JAK1
A purified human JAK1 kinase domain was purchased from Carna Biosciences, Inc. (Kobe, Japan). This was obtained as follows. A GST tag (62 kDa) was attached to the N-terminal of the 850 to 1154 (C-terminal) fragment of the human JAK1 protein (accession number #BAD92294.1), expressed using a baculovirus expression system, and then purified using Glutathion Sepharose chromatography.
(2) Measurement of JAK 1 Activity
As substrates, Biotin-Lyn-Substrate-2 (Biotin-XEQED EPEGF YFEWL EPE, X=ε−Acp (Peptide Institute, Inc., Osaka, Japan) and ATP were used. As an assay buffer, 15 mM Tris-HCl pH 7.5 containing 0.01% Tween 20 and 2 mM DTT was used. Normally, 20 μL of a substrate solution (an assay buffer containing 627 nM Biotin-Lyn-Substrate-2, 500 μM ATP, and 25 mM MgCl2), an assay buffer containing 10 μL of a test compound, and 20 μL of an enzyme solution were added to a microplate, and stirred sufficiently.
(§1) After incubation at room temperature for 1 hour, the plate was washed with a cleaning buffer (50 mM Tris-HCl pH 7.5, 150 mM NaCl, 0.02% Tween 20), and a blocking buffer (a cleaning buffer containing 0.1% bovine serum albumin) was added to the plate. After incubation at room temperature for 30 minutes, the blocking buffer was removed, and an HRP-PY-20 solution (obtained by diluting HRP-PY-20 solution with the blocking buffer 500 times) was added. After incubation at room temperature for 30 minutes, the plate was washed four times, and a TMB substrate solution (Sigma) was added to the plate. After incubation at room temperature for 4 minutes, 1 M sulfuric acid was added to stop the reaction. Enzyme activity was measured with an absorbance at 450 nm. The JAK1 inhibitory activity of the test compound was calculated by taking the concentration of the test compound which inhibits the JAK1 activity by 50% as an IC50 value.

The target in the next data set is T2, human JAK3 kinase domain (Homo sapiens, UniProt P52333).
T2 construct: attached to the N-terminal of the 796 to 1124 (C-terminal) fragment of the human JAK3 protein; His tag (N); purchased Carna Biosciences, Inc. (Kobe, Japan); host or cells: baculovirus expression system
The experiment in a line: JAK inhibition test: measurement of JAK3 activity. Format: biochemical. The note with it: 20 μM ATP, absorbance at 450 nm.
Source text: (5) Preparation of Human JAK3
A purified human JAK3 kinase domain was purchased from Carna Biosciences, Inc. (Kobe, Japan). This was obtained as follows. A His tag (41 kDa) was attached to the N-terminal of the 796 to 1124 (C-terminal) fragment of the human JAK3 protein (accession number #NM_000215), expressed using a baculovirus expression system, and then purified using Ni-NTA affinity column chromatography.
(6) Measurement of JAK3 Activity
As substrates, Biotin-Lyn-Substrate-2 (Biotin-XEQED EPEGF YFEWL EPE, X=ε−Acp (Peptide Institute, Inc., Osaka, Japan) and ATP were used. As an assay buffer, 15 mM Tris-HCl pH 7.5 containing 0.01% Tween 20 and 2 mM DTT was used. Normally, 20 μL of a substrate solution (an assay buffer containing 627 nM Biotin-Lyn-Substrate-2, 20 μM ATP, and 25 mM MgCl2), an assay buffer containing 10 μL of a test compound, and 20 μL of an enzyme solution
as §1, with “JAK3” for “JAK1”

Another data set deals with T3, human JAK2 kinase domain (Homo sapiens, UniProt O60674).
T3 construct: attached to the N-terminal of the 826 to 1132 (C-terminal) fragment of the human JAK2 protein; His tag (N); purchased Carna Biosciences, Inc. (Kobe, Japan); host or cells: baculovirus expression system
The data set can be described thus: JAK inhibition test: measurement of JAK2 activity. It counts as biochemical. The conditions noted are these: 25 μM ATP, absorbance at 450 nm.
Source text: (3) Preparation of Human JAK2
A purified human JAK2 kinase domain was purchased from Carna Biosciences, Inc. (Kobe, Japan). This was obtained as follows. A His tag (39 kDa) was attached to the N-terminal of the 826 to 1132 (C-terminal) fragment of the human JAK2 protein (accession number #NP_004963.1), expressed using a baculovirus expression system, and then purified using Ni-NTA affinity column chromatography.
(4) Measurement of JAK2 Activity
As substrates, Biotin-Lyn-Substrate-2 (Biotin-XEQED EPEGF YFEWL EPE, X=ε−Acp (Peptide Institute, Inc., Osaka, Japan) and ATP were used. As an assay buffer, 15 mM Tris-HCl pH 7.5 containing 0.01% Tween 20 and 2 mM DTT was used. Normally, 20 μL of a substrate solution (an assay buffer containing 627 nM Biotin-Lyn-Substrate-2, 25 μM ATP, and 25 mM MgCl2), an assay buffer containing 10 μL of a test compound, and 20 μL of an enzyme solution were added to a microplate, and stirred sufficiently.
as §1, with “JAK2” for “JAK1”

For data set [1], the system named is stat5 phosphorylation of CD3+lymphocytes in the blood. The experiment in a line: Measurement of PD activity (stat5 phosphorylation in blood after oral dosing). Format: in vivo, rat. The conditions noted are these: 20 mg/kg orally to normal rats, blood collected 4 hours later, cytokine stimulation, FACS. The procedure: Measurement of PD activity was carried out by evaluating the degree of stat5 phosphorylation of CD3+lymphocytes in the blood.
Compounds at (20 mg/kg) were orally administered to normal rats, and 4 hours later, 200 μL of blood was collected therefrom. For phosphorylation of stat5, stimulating cytokines (IL-2, 7, 15, etc., Peprotec) were added thereto, and CD3 antibodies fluorescently labeled (BD pharmingen) was added at a dose of 1/20, followed by incubation at 37° C. 5 mL of a lysing buffer (BD Pharmingen) was added to stop the reaction, and then washed by the addition of PBS (−) (Phosphate Buffered Saline (−), manufactured by Shin Yang Chemical Industries, Ltd.). 300 μL of a permeabilization buffer (BD Pharmingen) was added thereto, followed by immobilization on ice. The resultant was washed with a FACS buffer, and then fluorescently-labeled phosphorylation stat5 antibodies (BD Pharmingen) were added thereto, followed by further incubation at room temperature. After incubation, the cells were washed with a FACS buffer, insoluble materials were removed through a filter. Fluorescence measurement was carried out using a FACScalibur. For an individual of each rat, a sample with addition of cytokine and a sample without addition of cytokine were prepared, and a difference of the respective average fluorescence intensities (AMFI) was determined. As a control, the blood of rats to which the compound had not been administered was used, and an inhibitory rate was calculated from the average fluorescence intensity of the respective group of the samples to which the compound had been added, relative to the average fluorescence intensity of the control sample (Inhibitory Rate (%)=100*(1−(ΔMFI of Sample)/(ΔMFI of Control)).

For data set [2], the system named is heart transplantation rejection. The experiment in a line: Rat heart transplantation (heterotopic, ACI donor to Lewis recipient). Format: in vivo. The note with it: 20 mg/kg orally once daily for 14 days from transplantation, observed 29 days. The method, then:
Heterotopic heart transplantation into the rat abdomen was performed in accordance with reference materials. With regard to the animals, ACI-based male rats were used as donors and Lewis-based male rats were used as recipients. In addition, Lewis rats were fasted the day before the transplant. The test drugs were orally administered at a dose of 20 mg/kg once daily for 14 days from the date of transplantation. For determining the heart transplantation rejection, the heart transplantation was observed daily by palpation for 29 days after transplantation, and stoppage of beating was taken as rejection. The survival period in days was counted until the day before rejection. From the survival period in days, a value of MST (Median Survival Time) was determined.

Where only a bound is given, the exact number is not on record here.

T3 sequence (O60674 826-1132): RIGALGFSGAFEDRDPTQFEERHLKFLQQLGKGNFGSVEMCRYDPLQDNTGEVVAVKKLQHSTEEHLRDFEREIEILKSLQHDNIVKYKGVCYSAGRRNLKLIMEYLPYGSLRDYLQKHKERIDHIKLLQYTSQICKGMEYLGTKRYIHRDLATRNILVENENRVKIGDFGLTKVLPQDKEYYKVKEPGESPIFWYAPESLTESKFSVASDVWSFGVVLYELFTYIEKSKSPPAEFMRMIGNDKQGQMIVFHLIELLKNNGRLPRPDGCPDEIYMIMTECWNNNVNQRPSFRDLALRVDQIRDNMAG
T2 sequence (P52333 796-1124): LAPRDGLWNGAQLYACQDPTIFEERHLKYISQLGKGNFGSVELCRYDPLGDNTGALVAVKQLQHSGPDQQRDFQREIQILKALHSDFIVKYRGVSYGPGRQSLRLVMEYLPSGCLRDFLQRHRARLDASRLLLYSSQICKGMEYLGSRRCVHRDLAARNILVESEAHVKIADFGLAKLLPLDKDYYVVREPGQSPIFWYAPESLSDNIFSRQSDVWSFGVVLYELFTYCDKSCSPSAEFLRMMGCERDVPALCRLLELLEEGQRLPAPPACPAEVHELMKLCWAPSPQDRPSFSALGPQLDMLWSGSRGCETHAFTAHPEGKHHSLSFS
T1 sequence (P23458 850-1154): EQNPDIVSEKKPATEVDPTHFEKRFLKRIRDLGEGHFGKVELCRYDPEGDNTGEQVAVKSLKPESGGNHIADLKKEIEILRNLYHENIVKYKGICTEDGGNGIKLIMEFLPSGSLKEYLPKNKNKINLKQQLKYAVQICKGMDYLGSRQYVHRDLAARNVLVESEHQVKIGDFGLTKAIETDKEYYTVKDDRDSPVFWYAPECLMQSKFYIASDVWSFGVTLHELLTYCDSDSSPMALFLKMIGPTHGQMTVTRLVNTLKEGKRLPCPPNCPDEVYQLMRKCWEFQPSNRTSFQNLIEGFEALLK

In the case of `C[C@@H]1CCN(C(=O)CC#N)C[C@@H]1n1cc(Br)c2cnc3[nH]cc(C#N)c3c21` (racemic) [Example 2-2], the IC50 against human JAK1 kinase domain is 6.9 nM; against human JAK3 kinase domain, 0.27 nM; against human JAK2 kinase domain, 2.5 nM.

Regarding `C[C@@H]1CCN(C(=O)CC#N)C[C@@H]1n1ccc2cnc3[nH]cc(Br)c3c21` (racemic) [Example 2-4], the results for the IC50 against human JAK1 kinase domain, on human JAK3 kinase domain and against human JAK2 kinase domain were 6.8 nM, 0.26 nM and 1 nM, respectively.

In the case of `C[C@@H]1CCN(C(=O)CC#N)C[C@@H]1n1cc(Br)c2cnc3[nH]ccc3c21` (racemic) [Example 2-5], in data set [1], the “Inhibition Ratio (stat5 phosphorylation)” value stood at 86%. Moreover, the IC50 against human JAK1 kinase domain was found to be 1.1 nM; on human JAK3 kinase domain it was 0.3 nM; on human JAK2 kinase domain, 0.6 nM.

In the case of `C[C@@H]1CCN(C(=O)CC#N)C[C@@H]1n1ccc2cnc3[nH]ccc3c21` (racemic) [Example 2-7], the “Inhibition Ratio (stat5 phosphorylation)” value in data set [1] is reported as 95%. Moreover, in data set [2], the “MST (Median Survival Time)” value was above 28 days.

Regarding `C[C@@H]1CCN(C(=O)Cn2cnnn2)C[C@@H]1n1ccc2cnc3[nH]ccc3c21` (racemic) [Example 2-14], the IC50 against human JAK1 kinase domain came to 3.1 nM; on human JAK3 kinase domain, 0.52 nM; at human JAK2 kinase domain, 2.5 nM.

`Cc1nnnn1CC(=O)N1CC[C@@H](C)[C@@H](n2ccc3cnc4[nH]ccc4c32)C1` (racemic) [Example 2-15]: the values for the IC50 on human JAK1 kinase domain, on human JAK3 kinase domain and against human JAK2 kinase domain were 4.7 nM, 1.3 nM and 2.9 nM, respectively.

As for `C[C@@H]1CCN(C(=O)CC#N)C[C@@H]1n1cc(-c2ccncc2)c2cnc3[nH]cc(C#N)c3c21` (racemic) [Example 2-17], the values for the IC50 against human JAK1 kinase domain, against human JAK3 kinase domain and at human JAK2 kinase domain were 0.76 nM, 0.41 nM and 0.53 nM, respectively.

`Cc1cc2cnc3[nH]ccc3c2n1[C@H]1CN(C(=O)CC#N)CC[C@H]1C` (racemic) [Example 2-74]: the “Inhibition Ratio (stat5 phosphorylation)” value in data set [1] turned out to be 98%.

Take `C[C@@H]1CCN(c2cnc(C#N)cn2)C[C@@H]1n1ccc2cnc3[nH]ccc3c21` (racemic) [Example 4-1]: the IC50 at human JAK1 kinase domain was determined as 7.9 nM; on human JAK3 kinase domain, 0.88 nM; against human JAK2 kinase domain, 3 nM.

As for `C[C@@H]1CCN(c2ccc(C#N)cn2)C[C@@H]1n1ccc2cnc3[nH]ccc3c21` (racemic) [Example 4], the IC50 at human JAK1 kinase domain was 16 nM; against human JAK3 kinase domain, 1.1 nM; on human JAK2 kinase domain, 3.5 nM.

As for `C[C@@H]1CCN(C(=O)N(C)CC#N)C[C@@H]1n1ccc2cnc3[nH]ccc3c21` (racemic) [Example 5-1], the IC50 was 3 nM against human JAK1 kinase domain, 0.61 nM against human JAK3 kinase domain and 0.89 nM against human JAK2 kinase domain.

As for `C[C@@H]1CCN(S(=O)(=O)N(C)CC#N)C[C@@H]1n1ccc2cnc3[nH]ccc3c21` (racemic) [Example 9-3], the “Inhibition Ratio (stat5 phosphorylation)” value in data set [1] is 62%.

On to `O[C@]12CC3C[C@H](C1)[C@H](n1ccc4cnc5[nH]ccc5c41)[C@@H](C3)C2` [Example 1, (1S,3R,4R,5s)-4-(dipyrrolo[2,3-b:2′,3′-d]pyridin-1(6H)-yl)adamantan-1-ol], for which the IC50 against human JAK1 kinase domain amounted to 6.1 nM; against human JAK3 kinase domain, 1 nM; at human JAK2 kinase domain, 1.6 nM.

Take `C[C@@H]1CCN(C(=O)CC#N)C[C@@H]1n1ccc2cnc3[nH]ccc3c21` [Example 2-10]: the IC50 against human JAK1 kinase domain is 0.49 nM; against human JAK3 kinase domain it was 0.19 nM; against human JAK2 kinase domain it was 0.35 nM. The “MST (Median Survival Time)” value in data set [2] is listed as 17 days.

Regarding `C[C@H]1CCN(C(=O)CC#N)C[C@H]1n1ccc2cnc3[nH]cc(C#N)c3c21` [Example 2-18], the melting point was 286 to 290 °C (dec.).

`C[C@@H]1CCN(C(=O)CC#N)C[C@@H]1n1ccc2cnc3[nH]cc(C#N)c3c21` [Example 2-19]: the melting point was 288 to 290 °C (dec.). This molecule had an IC50 at human JAK1 kinase domain of 3.2 nM. Further, the IC50 on human JAK3 kinase domain is 0.11 nM. Moreover, at human JAK2 kinase domain, the IC50 stood at 1.4 nM.
